Structures are written as SMILES. Some results are limits rather than exact numbers.

This experiment deals with HepG2. The experiment in a line: Inhibition of human recombinant BMP6-stimulated hepcidin mRNA expression in human HepG2 cells after 6 hrs by qRT-PCR analysis. The class given is functional, cell-based. Particulars: HepG2, 6 h. In general terms: Quantitative PCR measures a nucleic acid by following its amplification.

What is called IC50 is the point on the concentration scale where inhibition reaches its midpoint. Take `COC(=O)Nc1cc(-c2c(C(C)C)n[nH]c2C)cc2[nH]ncc12`: the IC50 was 0.19 µM.
Turning to `COC(=O)N(C)c1cc(-c2c(C3CC3)n[nH]c2C)cc2[nH]ncc12`, the IC50 is 3 µM.
As for `COC(=O)Nc1cc(-c2c(C(=O)OC)n[nH]c2C)cc2[nH]ncc12`, the IC50 was found to be 0.13 µM.
For `COCc1n[nH]c(C)c1-c1cc(NC(=O)OC)c2cn[nH]c2c1`, the IC50 is 3.9 µM.
Take `Cc1[nH]nc(C2CC2)c1-c1ccc2c(-c3ccncc3)n[nH]c2c1`: the IC50 is 2.6 µM.
`Cc1[nH]nc(C2CC2)c1-c1cc(NC(=O)C2CC2)c2cn[nH]c2c1`: the IC50 is 1 µM.
The same measure for `CNC(=O)Nc1cc(-c2c(C3CC3)n[nH]c2C)cc2[nH]ncc12`: 0.34 µM; for `CNC(=O)c1cc(-c2c(C3CC3)n[nH]c2C)cc2[nH]ncc12`: 2.2 µM.
In the case of `COC(=O)Nc1cc(-c2c(-c3ccccn3)n[nH]c2C)cc2[nH]ncc12`, the concentration for half-maximal inhibition (IC50) amounted to 0.32 µM.
As to `Cc1[nH]nc(C2CC2)c1-c1cc(NC(=O)c2ccc(N3CCN(C)CC3)cc2)c2cn[nH]c2c1`, the IC50 was determined as 1.9 µM.
As to `Cc1[nH]nc(C2CC2)c1-c1ccc2cn[nH]c2c1`, the half-inhibitory concentration (IC50) is 4.1 µM.
As to `Cc1[nH]nc(C2CC2)c1-c1cc(N)c2cn[nH]c2c1`, the IC50 is 2.7 µM.
Consider `COC(=O)Nc1cc(-c2c(-c3ccccc3)n[nH]c2C)cc2[nH]ncc12`, for which the IC50 worked out at 1.1 µM.
`CCOC(=O)Nc1cc(-c2c(C3CC3)n[nH]c2C)cc2[nH]ncc12`: the half-maximal inhibitory concentration (IC50) amounted to 0.66 µM.
As to `Cc1[nH]nc(C2CC2)c1-c1ccc2c(-c3ccc[nH]3)n[nH]c2c1`, the IC50 amounted to 3.1 µM.
Turning to `CC(=O)Nc1n[nH]c2cc(-c3c(C4CC4)n[nH]c3C)ccc12`, the half-inhibitory concentration (IC50) came to 0.41 µM.
On to `CNC(=O)c1n[nH]c(C)c1-c1cc(NC(=O)OC)c2cn[nH]c2c1`, for which the IC50 turned out to be 2 µM.
In the case of `CCC(=O)Nc1cc(-c2c(C3CC3)n[nH]c2C)cc2[nH]ncc12`, the half-inhibitory concentration (IC50) was determined as 0.45 µM.
In the case of `COC(=O)Nc1cc(-c2c(C(=O)O)n[nH]c2C)cc2[nH]ncc12`, the IC50 was above 10 µM.
On to `Cc1[nH]nc(C2CC2)c1-c1cc(NS(C)(=O)=O)c2cn[nH]c2c1`, for which the IC50 came to 1.2 µM.
The same measure for `Cc1[nH]nc(C2CC2)c1-c1ccc2c(-c3cccnc3)n[nH]c2c1`: 2.3 µM; for `COC(=O)Nc1cc(-c2c(C)n[nH]c2C)cc2[nH]ncc12`: 0.15 µM.
As for `CCc1n[nH]c(C)c1-c1cc(NC(=O)OC)c2cn[nH]c2c1`, the IC50 stood at 0.18 µM.
For `CC(=O)Nc1cc(-c2c(C3CC3)n[nH]c2C)cc2[nH]ncc12`, the IC50 was 0.19 µM.
The same measure for `Cc1[nH]nc(C2CC2)c1-c1ccc2c(-c3ccc(N4CCNCC4)nc3)n[nH]c2c1`: 0.17 µM.

For the origin of these results see ChEMBL document CHEMBL4118098, “Discovery of DS28120313 as a potent orally active hepcidin production inhibitor: Design and optimization of novel 4,6-disubstituted indazole derivatives” (Bioorg Med Chem Lett, 2017).
